Results: paper PMC9481597 (Communications Biology, 2022)
Like-named read-outs stand apart in the source and are kept apart here.

What was measured:
[1] = system: MPro^WT (SARS-CoV-2 main protease, mature dimer); details: ITC, cited from earlier work; for Kd: read-out: Kd = Ki
MPro^C145A = MPro^C145A (Severe acute respiratory syndrome coronavirus 2, UniProt P0DTC1, C3408A); format: binding, SARS-CoV-2
[2] = system: MPro^WT (SARS-CoV-2 main protease, mature dimer); format: binding
MPro^1-199(C145A) [3] = target: T1, MPro^1-199(C145A) (Severe acute respiratory syndrome coronavirus 2, UniProt P0DTC1, C3408A); set-up: species or system SARS-CoV-2
MPro^1-199(C145A) [4] = target: T1, MPro^1-199(C145A); format: binding, SARS-CoV-2

| Compound | N ([1]; GC373) | ΔG ([1]; GC373) | ΔH ([1]; GC373) | ΔS ([1]; GC373) | Kd ([1]; GC373) | Kd = Ki (MPro^C145A) | increase in binding affinity by nitrile warhead reacting with C145 [2] | Kdimer.app (MPro^1-199(C145A) [3]) | dimer formation in SV-AUC (MPro^1-199(C145A) [3]) | protein-inhibitor adduct in mass spectra (MPro^1-199(C145A) [4]) | N ([1]; NMV) | ΔG ([1]; NMV) | ΔH ([1]; NMV) | ΔS ([1]; NMV) | Kd ([1]; NMV) | N (MPro^C145A) | ΔH (MPro^C145A) | ΔS (MPro^C145A) |
| --- | --- | --- | --- | --- | --- | --- | --- | --- | --- | --- | --- | --- | --- | --- | --- | --- | --- | --- |
| CC(C)C[C@H](NC(=O)OCc1ccccc1)C(=O)N[C@H](C=O)C[C@@H]1CCNC1=O [GC373] | 0.99 ± 0.01 | -9.4 kcal/mol | -6.7 ± 0.1 kcal/mol | 9.1 cal/mol/K | 150 ± 30 nM | no response |  |  |  |  |  |  |  |  |  |  |  |  |
| CC(C)(C)[C@H](NC(=O)C(F)(F)F)C(=O)N1C[C@H]2[C@@H]([C@H]1C(=O)N[C@H](C#N)C[C@@H]1CCNC1=O)C2(C)C [NMV, nirmatrelvir] |  |  |  |  |  |  | ~ 400 times | >200 µM | no faster sedimenting species other than a monomer was observed | absence of the imidate thioester adduct | 0.99 ± 0.003 | –11.2 kcal/mol | –10.75 ± 0.7 kcal/mol | 1.57 cal/mol/K | 7 ± 3 nM | 0.96 ± 0.04 | –3.89 ± 0.2 kcal/mol | 12.6 cal/mol/K |
